Source: PMC6984391, “Anion carriers as potential treatments for cystic fibrosis: transport in cystic fibrosis cells, and additivity to channel-targeting drugs” (Chemical Science, 2019)

Target: T1, Ca^2+-activated Cl^– channel (CaCC) (Homo sapiens, UniProt Q5XXA6)
T1 construct: endogenous in cells; host or cells: CFBE41o- cells stably expressing YFP (YFP-CFBE cells)
T1 sequence (Q5XXA6 1-986): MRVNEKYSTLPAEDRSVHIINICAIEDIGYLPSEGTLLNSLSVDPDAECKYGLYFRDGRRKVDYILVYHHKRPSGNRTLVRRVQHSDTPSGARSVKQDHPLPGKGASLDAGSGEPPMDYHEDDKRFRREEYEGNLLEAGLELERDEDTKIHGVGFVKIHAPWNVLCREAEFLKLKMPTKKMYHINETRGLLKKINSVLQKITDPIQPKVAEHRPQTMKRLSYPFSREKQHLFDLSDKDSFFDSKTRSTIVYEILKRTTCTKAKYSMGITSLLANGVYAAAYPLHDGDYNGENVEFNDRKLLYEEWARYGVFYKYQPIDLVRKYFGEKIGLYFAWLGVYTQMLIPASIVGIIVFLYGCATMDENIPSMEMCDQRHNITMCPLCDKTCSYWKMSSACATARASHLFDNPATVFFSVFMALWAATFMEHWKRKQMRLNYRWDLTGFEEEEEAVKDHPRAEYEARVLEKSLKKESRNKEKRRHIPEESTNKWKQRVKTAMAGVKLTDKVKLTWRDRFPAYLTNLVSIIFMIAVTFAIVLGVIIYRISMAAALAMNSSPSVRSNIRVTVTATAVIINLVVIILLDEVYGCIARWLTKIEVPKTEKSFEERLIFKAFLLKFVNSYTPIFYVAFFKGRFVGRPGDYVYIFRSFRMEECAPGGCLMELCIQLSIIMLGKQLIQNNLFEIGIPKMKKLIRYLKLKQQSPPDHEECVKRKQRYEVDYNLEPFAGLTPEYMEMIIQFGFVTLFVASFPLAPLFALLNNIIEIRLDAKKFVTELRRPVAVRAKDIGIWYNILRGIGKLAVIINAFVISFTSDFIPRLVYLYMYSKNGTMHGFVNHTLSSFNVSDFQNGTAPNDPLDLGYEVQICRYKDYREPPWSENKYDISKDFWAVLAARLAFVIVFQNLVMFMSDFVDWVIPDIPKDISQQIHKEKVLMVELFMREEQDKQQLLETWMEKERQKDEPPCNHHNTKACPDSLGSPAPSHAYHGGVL
Test: CaCC-mediated anion transport in YFP-CFBE cells
Format: cell-based
Conditions: UTP 1 mM; CaCCinh-A01 10 μM
Method: (for chemical structure, see ESI Fig. S15 ^†).
the PBS bathing cells 10 minutes prior to PBS iodide addition, whereas UTP was added to cells with the PBS iodide solution. Fluorescence was measured for 14 seconds; 2 seconds before and 12 seconds after injection of 110 l PBS iodide solution (137 mM Cl- replaced by I-) into each well (to obtain a final concentration of I- of 100 mM).
We expressed cell fluorescence values (F) relative to the fluorescence value immediately before I- injection (F0), excluding the initial decrease, which likely represents the quenching of extracellular YFP released from cells and signal reduction accompanying the increase in solution volume bathing cells. To quantify anion transport by test anionophores, we determined the initial slope of the fluorescence decay following I - addition by fitting first order exponential functions to the last 12 seconds of each fluorescence recording. […]
fluorescence microscopy as described previously.10 In brief, YFP-FRT cells were washed 3x with PBS before transfer to a perfusion chamber mounted on the stage of a Leica DM IRB microscope. […] Any anionophore not incorporated into YFP-FRT cell membranes was removed from the chamber by perfusion with PBS when fluorescence measurements commenced. […]
Fluorescence quenching by the anionophore vehicle DMSO was subtracted from each test measurement. […]

## O=c1ccn([C@@H]2O[C@H](COP(=O)(O)OP(=O)(O)OP(=O)(O)O)[C@@H](O)[C@H]2O)c(=O)[nH]1 [UTP]
  effect on CaCC activity: activated little CaCC activity
